Counter-ions that a name gives are not always drawn.
Target: T1, human 5-HT5A receptor (Homo sapiens, UniProt P47898)
T1 construct: expressed in transfected cells; membrane preparation
Assay: Test of human 5-HT5A receptor binding inhibition ([3H]5-CT, HEK293 cell membrane)
Settings: [3H]5-CT binding, membrane of HEK293 cell expressing human 5-HT5A receptor
Method: An ORF of a human 5-HT5A receptor (Genbank AF498985) was cloned from a human hippocampal cDNA library, and then inserted into a pCR2.1 vector (Invitrogen), and Escherichia coli having the plasmid was mass cultured. Next, the human 5-HT5A receptor full-length cDNA sequence was analyzed, recombined into a pCDNA3.1 vector (Invitrogen) as an expression vector, and mass cultured. A human embryonic kidney-induced cell HEK293 cell (ATCC) was seeded, and the resulting expression plasmid (1 μg) above was added thereto together with LIPOFECTAMINE 2000 (Invitrogen; 2 μl), a gene was introduced into the HEK293 cell, and then Geneticin (G418 sulfate 500 μg/ml; Kanto Chemical Co., Inc.) was used as a drug-resistant marker to screen the expressing cell. Thus prepared gene-expressing recombinant cell was cultured in a D-MEM, 10% FCS, 1% Pc./Sm., 500 μg/ml G418 culture medium for 3 days. This experimental operation was conducted in accordance with a gene operation experiment manual of a known method (Sambrook, J. et al, Molecular Cloning-A Laboratory Manual“, Cold Spring Harabor Laboratory, NY, 1989), etc., an instruction appended in a reagent or the like.
(1) Preparation of a Membrane from an HEK293 Cell Forcibly Expressing a Human 5-HT5A Receptor
An HEK293 cell forcibly expressing a human 5-HT5A receptor was cultured in an F500 plate, and scraped for collection using a scraper. After centrifugation, the precipitates were collected and an incubation buffer (50 mM Tris (HCl) PH 7.4, 10 mM Mg504, 0.5 mM EDTA) was added thereto. After homogenization, it was further centrifuged, an incubation buffer was added to the precipitate, and the mixture was well suspended. These operations were repeatedly conducted, the protein concentration was then measured, and the preparation of a membrane was completed.
(2) Experiment on Human 5-HT5A Receptor Binding Inhibition
The compound to be tested (0.3 to 300 nM) and a 100 μM 5-CT solution in DMSO were added to a 96-well plate at 2 μl/well. The number of the wells to be measured under the same condition in one experiment was set at 2, and an average value thereof was used. It was suspended in an incubation buffer, and a HEK293 cell membrane forcibly expressing a human 5-HT5A receptor that had been prepared at 200 μg/ml was added thereto at 100 μl/well. The mixture was incubated at room temperature for 15 minutes, and a [^3H]5-CT solution (2 nM [^3H]5-CT, an incubation buffer) was then added thereto at 100 μl/well.
Separate from this, 100 μl of the solution was dispersed to a liquid scintillation vial, 2 ml of Aquasol II (registered trademark) was added thereto, followed by stirring, and the radioactivity was then measured with a liquid scintillation counter. The solution was incubated at 37° C. for 60 minutes. The reaction liquid was sucked to a 96-well GF/C filter plate that had been preliminarily treated with 0.2% polyethyleneimine, and washed six times with an ice-cooled 50 mM Tris (pH 7.5) buffer. The GF/C filter plate was dried.
MicroscintTMPS (registered trademark) was added thereto at 40 μl/well. The radioactivity remaining on the GF/C filter plate was measured in a top counter.
For the inhibitory activity for the binding of the [^3H]5-CT by the compound to be tested in each experiment, IC50 value was calculated by taking the radioactivity when only DMSO was added as 0% inhibition, and the radioactivity when 1 μM 5-CT was added as 100% inhibition. Apart from this, a Ki value was calculated from the Kd value of the [^3H]5-CT that had been determined by Scatchard analysis.
Ki=IC50 (1+Concentration of the ligands added/Kd (4.95 nM))

T1 sequence (P47898 whole entry): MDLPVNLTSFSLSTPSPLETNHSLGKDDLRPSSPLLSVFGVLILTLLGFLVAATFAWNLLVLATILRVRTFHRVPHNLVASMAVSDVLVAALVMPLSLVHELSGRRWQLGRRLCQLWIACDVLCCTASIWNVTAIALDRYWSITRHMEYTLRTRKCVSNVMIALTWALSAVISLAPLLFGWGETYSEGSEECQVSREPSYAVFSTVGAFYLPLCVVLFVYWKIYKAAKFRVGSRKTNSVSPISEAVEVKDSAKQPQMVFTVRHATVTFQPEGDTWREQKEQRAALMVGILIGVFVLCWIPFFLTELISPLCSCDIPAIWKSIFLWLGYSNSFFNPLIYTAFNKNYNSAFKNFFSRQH

| SMILES | Ki [nM] |
| --- | --- |
| NC(N)=NC(=O)c1ccc2c3ccccc3n([C@@H]3CCNC3)c2c1 [Example 175] | ≤ 50 |
| CC(C)N/C(N)=N\C(=O)c1ccc2c3ccccc3n(C3CCOCC3)c2c1 [Example 149] | ≤ 50 |
| CN/C(N)=N/C(=O)c1ccc2c3ccccc3n(C3CCOCC3)c2c1 [Example 120] | 2.2 |
| N/C(=N\C(=O)c1ccc2c3ccccc3n(C3CCOCC3)c2c1)NCc1cccs1 [Example 180] | ≤ 50 |
| NC(N)=NC(=O)c1ccc2c3ccccc3n([C@H]3CC[C@@H](F)CC3)c2c1 [Example 143] | ≤ 50 |
| N/C(=N\C(=O)c1ccc2c3ccccc3n(C3CCOCC3)c2c1)Nc1ccccc1 [Example 181] | ≤ 50 |
| NC(N)=NC(=O)c1ccc2c3ccc(F)cc3n(C3CCOCC3)c2c1 [Example 114] | ≤ 50 |
| Cc1cc(Cn2c3ccccc3c3ccc(C(=O)N=C(N)N)cc32)no1 [Example 141] | ≤ 50 |
| CC(C)n1c2cc(C(=O)N=C(N)N)ccc2c2c(O)cccc21 [Example 152] | ≤ 50 |
| NC(N)=NC(=O)c1cc(Cl)c2c3ccccc3n(C3CCOCC3)c2c1 [Example 150] | ≤ 50 |
| CC(C)S(=O)(=O)n1c2ccccc2c2ccc(C(=O)N=C(N)N)cc21 [Example 28] | 4.5 |
| Cc1cccc2c1c1c(F)cc(C(=O)N=C(N)N)cc1n2C1CCOCC1 [Example 145] | ≤ 50 |
| NC(N)=NC(=O)c1ccc2c(c1)[nH]c1ccccc12 [Example 2, N-(diaminomethylene)-9H-carbazole-2-carboxamide] | 2.8 |
| Cc1cc(C(=O)N=C(N)N)cc2c1c1c(F)cccc1n2C1CCOCC1 [Example 138] | ≤ 50 |
| NC(N)=NC(=O)c1ccc2c3ccccc3n(C3CCOCC3)c2c1 [Example 144] | ≤ 50 |
| NC(N)=NC(=O)c1cc(F)c2c3c(F)cccc3n(C3CCOCC3)c2c1 [Example 146] | ≤ 50 |
| N/C(=N\C(=O)c1ccc2c3ccccc3n(C3CCOCC3)c2c1)NCc1ccco1 [Example 179] | ≤ 50 |

| SMILES | Ki [nM] |
| --- | --- |
| NC(N)=NC(=O)c1ccc2c3ccccc3n(Cc3ccc(F)s3)c2c1 [Example 116] | ≤ 50 |
| CSc1cccc2c1c1ccc(C(=O)N=C(N)N)cc1n2C1CCOCC1 [Example 147] | ≤ 50 |
| CO[C@H]1CC[C@@H](n2c3ccccc3c3ccc(C(=O)N=C(N)N)cc32)CC1 [Example 148] | ≤ 50 |
| N/C(=N/C(=O)c1ccc2c3ccccc3n(C3CCOCC3)c2c1)NCCO [Example 126] | ≤ 50 |
| NC(N)=NC(=O)c1ccc2c3ccccc3n(-c3ccccn3)c2c1 [Example 102] | 5.3 |
| NC(N)=NC(=O)c1ccc2c3c(Cl)cccc3n(C3CCOCC3)c2c1 [Example 115] | ≤ 50 |
| CC(C)C(=O)n1c2ccccc2c2ccc(C(=O)N=C(N)N)cc21 [Example 27] | 0.66 |
| NC(N)=NC(=O)c1ccc2c3ccccc3n(C(CF)CF)c2c1 [Example 160] | ≤ 50 |
| N/C(=N\C(=O)c1ccc2c3ccccc3n(C3CCOCC3)c2c1)NC1CCOCC1 [Example 182] | ≤ 50 |
| NC(N)=NC(=O)c1ccc2c3c(F)ccc(F)c3n(C3CCOCC3)c2c1 [Example 140] | ≤ 50 |
| N/C(=N\C(=O)c1ccc2c3ccccc3n(C3CCOCC3)c2c1)NC1CC1 [Example 164] | ≤ 50 |
| NC(N)=NC(=O)c1cc(F)c2c3ccccc3n(C3CCOCC3)c2c1 [Example 11, N-(diaminomethylene)-4-fluoro-9-(tetrahydro-2H-pyran-4-yl)-9H-carbazole-2-carboxamide hydrochloride] | ≤ 50 |
| N/C(=N\C(=O)c1ccc2c3ccccc3n(C3CCOCC3)c2c1)NCc1ccccc1 [Example 159] | 1.6 |
| Cc1ccsc1Cn1c2ccccc2c2ccc(C(=O)N=C(N)N)cc21 [Example 177] | ≤ 50 |
| COCCCN/C(N)=N/C(=O)c1ccc2c3ccccc3n(C3CCOCC3)c2c1 [Example 162] | ≤ 50 |
| CC(C)n1c2ccccc2c2ccc(C(=O)N=C(N)N)cc21 [Example 1, N-(diaminomethylene)-9-isopropyl-9H-carbazole-2-carboxamide] | 0.69 |

Continued, values first:

| Ki [nM] | SMILES |
| --- | --- |
| ≤ 50 | COc1cccc(OC)c1CNC(N)=NC(=O)c1ccc2c3ccccc3n(C3CCOCC3)c2c1 [Example 212] |
| ≤ 50 | N/C(=N\C(=O)c1ccc2c3ccccc3n(C3CCOCC3)c2c1)NCC1CCCCC1 [Example 204] |
| ≤ 50 | N/C(=N\C(=O)c1ccc2c3ccccc3n(C3CCOCC3)c2c1)NCC1CCCC1 [Example 205] |
| ≤ 50 | COc1ccc(CN/C(N)=N/C(=O)c2ccc3c4ccccc4n(C4CCOCC4)c3c2)cc1 [Example 193] |
| ≤ 50 | COc1cccc(CN/C(N)=N/C(=O)c2ccc3c4ccccc4n(C4CCOCC4)c3c2)c1 [Example 194] |
| ≤ 50 | N/C(=N\C(=O)c1ccc2c3ccccc3n(C3CCOCC3)c2c1)NC[C@@H]1CCCO1 [Example 187] |
| ≤ 50 | N/C(=N\C(=O)c1ccc2c3ccccc3n(C3CCOCC3)c2c1)NC[C@H]1CCCO1 [Example 188] |
| ≤ 50 | COc1ccccc1CN/C(N)=N/C(=O)c1ccc2c3ccccc3n(C3CCOCC3)c2c1 [Example 195] |
| ≤ 50 | N/C(=N\C(=O)c1ccc2c3ccccc3n(C3CCOCC3)c2c1)NCC1CCOCC1 [Example 206] |
| ≤ 50 | COCCN/C(N)=N/C(=O)c1ccc2c3ccccc3n(Cc3cccs3)c2c1 [Example 210] |
| ≤ 50 | N/C(=N\C(=O)c1ccc2c3ccccc3n(C3CCOCC3)c2c1)NCCc1ccccc1 [Example 196] |
| ≤ 50 | N/C(=N\C(=O)c1ccc2c3ccccc3n(C3CCOCC3)c2c1)NCC1COCCO1 (stereo not shown) [Example 186] |
| ≤ 50 | NC(N)=NC(=O)c1ccc2c3ccccc3n(C3CCN(c4ccccc4)CC3)c2c1 [Example 198] |
| ≤ 50 | N#CCN1CCC(n2c3ccccc3c3ccc(C(=O)N=C(N)N)cc32)CC1 [Example 191] |
| ≤ 50 | NC(N)=NC(=O)C1CCc2c(n(-c3ccccc3)c3ccccc23)C1 (stereo not shown) [Example 220] |

Tested on: MK-801-induced overactivity
Assay: MK-801-induced overactivity in mice, kinetic momentum by infrared sensor
Assay type: in vivo
Settings: mouse, oral, dose 0.01 mg/kg; MK-801 0.3 mg/kg i.p.; total 60 minutes, P<0.05
Method: Evaluation of Various Drugs Relative to a Drug for Increasing the Kinetic Momentum of Mice (Methane Phetamine, MK-801) (Method for Measuring a Kinetic Momentum by Discharge of an Infrared Ray)
The effect of improving the positive symptoms and the negative symptoms of schizophrenia by the compound (I) was evaluated by measuring the kinetic momentum that had been […] with administration of the compound in a model causing the symptoms by methane phetamine (which is hereinafter simply referred to as MAP) and MK-801.
Species: Male ICR mouse/number of animals (number of animals per group): 8 to 12 animals per group
The animal was left in a laboratory for 1 hour or longer to be acclimated to the environment, and the animal was taken from the feeding cage, orally administered with a compound to be tested, and then returned to the feeding cage. After 30 minutes, it was put into a cage for measurement, and the kinetic momentum of just the compound to be tested was measured. Further, after 30 minutes, the animal was taken out, and intraperitoneally administered with a drug for increasing kinetic momentum (MAP; 1 mg/kg or MK-801; 0.3 mg/kg, all dissolved in physiological saline), and its kinetic momentum was measured for a certain time (60 minutes) using a device for measuring the kinetic momentum by means of an infrared ray sensor (CompACT AMS, Muromachi Kikai Co., Ltd.). Also, the test was carried out under non-fasting.
The 60 minutes of measurements was classified into three groups: a first half 30 minutes, a second half 30 minutes, and a total 60 minutes. For a normal mouse (a mouse administered with physiological saline) and a mouse administered with the drug for increasing kinetic momentum, a Student's T test was used for evaluation in each interval. For the group administered with the compound to be tested, a solvent (vehicle) group and a Dunnett's T test were carried out and evaluated. For the evaluation, in case where there was a significant (P<0.05) difference for the total 60 minutes, it was considered to be effective.

| SMILES | inhibition of MK-801-induced overactivity |
| --- | --- |
| Cc1cc(C(=O)N=C(N)N)cc2c1c1c(F)cccc1n2C1CCOCC1 [Example 138] | significantly inhibited |
| NC(N)=NC(=O)c1cc(F)c2c3c(F)cccc3n(C3CCOCC3)c2c1 [Example 146] | significantly inhibited |

Same assay, conditions: mouse, oral, dose 0.03 mg/kg; MK-801 0.3 mg/kg i.p.

| SMILES | inhibition of MK-801-induced overactivity |
| --- | --- |
| COc1cccc(CN/C(N)=N/C(=O)c2ccc3c4ccccc4n(C4CCOCC4)c3c2)c1 [Example 194] | significantly inhibited |

Same assay, conditions: mouse, oral, dose 0.1 mg/kg; MK-801 0.3 mg/kg i.p.

| SMILES | inhibition of MK-801-induced overactivity |
| --- | --- |
| NC(N)=NC(=O)c1cc(Cl)c2c3ccccc3n(C3CCOCC3)c2c1 [Example 150] | significantly inhibited |

— patent US20100324017A1, “ACYLGUANIDINE DERIVATIVE” (priority 2007, published 2010)
